Measurements published in ChEMBL document CHEMBL1149427 (Bioorg Med Chem Lett, 2006).

Columns and labels:
Histamine H1 receptor = Histamine H1 receptor (Cavia porcellus, UniProt P31389); assay: (§1) Agonist activity at histamine H1 receptor in guinea pig ileum; type: functional, tissue-based
[1] = molecular target: Histamine H1 receptor (Cavia porcellus) (UniProt P31389); assay: as §1; type: functional, tissue-based
[2] = molecular target: Histamine H1 receptor (Cavia porcellus) (UniProt P31389); assay: Agonist activity at histamine H1 receptor in guinea pig ileum in presence of mepyramine; type: functional, tissue-based
[3] = molecular target: Histamine H1 receptor (Cavia porcellus) (UniProt P31389); assay: Functional activity at the histamine H1 receptor in guinea pig ileum; type: tissue-based

Histamine H1 receptor (Cavia porcellus), sequence (P31389 whole entry): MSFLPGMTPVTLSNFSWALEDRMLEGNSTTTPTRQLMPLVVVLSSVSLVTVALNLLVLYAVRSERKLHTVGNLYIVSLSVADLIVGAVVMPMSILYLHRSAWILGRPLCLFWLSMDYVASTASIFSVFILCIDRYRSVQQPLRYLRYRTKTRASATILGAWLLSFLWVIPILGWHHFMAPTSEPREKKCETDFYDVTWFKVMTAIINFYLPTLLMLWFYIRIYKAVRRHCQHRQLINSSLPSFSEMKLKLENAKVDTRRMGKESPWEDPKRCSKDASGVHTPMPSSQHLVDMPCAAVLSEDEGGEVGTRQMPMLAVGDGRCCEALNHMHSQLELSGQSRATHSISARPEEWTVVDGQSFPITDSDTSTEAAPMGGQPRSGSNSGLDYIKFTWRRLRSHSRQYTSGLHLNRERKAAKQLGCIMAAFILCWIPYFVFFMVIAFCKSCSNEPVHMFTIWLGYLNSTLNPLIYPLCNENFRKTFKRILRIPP
Histamine H1 receptor, sequence (P31389 whole entry): as above

| SMILES | EC50 (Histamine H1 receptor) | Activity [1] | Emax [1] | Emax [2] | pD'2 [3] |
| --- | --- | --- | --- | --- | --- |
| NCCc1c[nH]c(C(=O)CC(c2ccccc2)c2ccccc2)n1 | 1660 nM | 12% | 75% | 47% | – |
| COC(=O)C(N)C(O)c1c[nH]c(C(=O)CC(c2ccccc2)c2ccccc2)n1 (racemic) | – | – | 0% | – | 3.8 |
| NCCc1c[nH]cn1 | – | 100% | – | – | – |
| COCCOCn1cc(CCN)nc1C(=O)CC(c1ccccc1)c1ccccc1 | – | – | 0% | – | 5.05 |

Second part, the molecule after the results:

| EC50 (Histamine H1 receptor) | Activity [1] | Emax [1] | Emax [2] | pD'2 [3] | SMILES |
| --- | --- | --- | --- | --- | --- |
| – | – | 0% | – | 4.61 | COC(=O)[C@@H](N)[C@H](O)c1c[nH]c(C(=O)CC(c2ccccc2)c2ccccc2)n1 |
| – | – | 0% | – | 4.08 | N[C@H](CO)[C@H](O)c1c[nH]c(C(=O)CC(c2ccccc2)c2ccccc2)n1 |
